# Results taken from patent publication US20220233624A9, “ANTI-CANCER AND ANTI-PROLIFERATIVE COMPOSITIONS, AND METHODS FOR THEIR USE IN TREATING CANCER” (Natreon, Inc., priority 2020, published 2022).
# Values joined by “and” are separate entries in the source; they are usually repeats but may differ in a detail not shown here. Identical values can stand only once. Like-named read-outs stand apart in the source and are kept apart here.
# Columns and labels:
# [1] = system: colon cancer cells (cell line HT-29); experiment: Anti-proliferation assay on colon cancer cells; format: cell-based; details: Homo sapiens
# Description: (§1) Anti-proliferative and anti-cancer activity of extracts of this invention on non-small cell lung cancer cells and colon cancer cells were assessed generally as described in Example I and are discussed below. […] As noted throughout this application, the below data is intended to describe the present invention but not to be limiting.
# (§2) Non-small cell lung cancer cells (cell line NCI-H-358) and colon cancer cells (cell line HT-29) were plated in a 384-well plate in amounts of about 1.25 k cells/well. […] Wells with untreated cells and with plain media were also included as controls. Plates passed quality control parameters.
# [2] = system: Acute Promyelocytic Leukemia PDCs (APL-SB 46120); experiment: Anti-proliferation assay on APL subtype AML PDCs; format: cell-based; details: Homo sapiens
# Description: In this Example, AML drugs were used as disease specific controls.
# The AML PDCs evaluated below were an Acute Promyelocytic Leukemia (APL, APML) subtype, APL-SB 46120, from a human subject.
# IC25 values were calculated using IC50 and hill slope. […] The drugs were used in these concentrations on the new APL subtype cells as described further below. […]
# [3] = system: CLL (Chronic lymphocytic leukemia) PDCs; experiment: Anti-proliferation assay on CLL PDCs; format: cell-based, human; details: for inhibition at 10 µM: Homo sapiens
# Description: (§3) The outermost rows/columns of the plates were filled with PBS (pH 7.4) to avoid an edge-effect and were considered as blanks. Standardized aqueous extracts identified in Table 2 were prepared in main stock solutions by dissolving 1 mg of extract in 1 ml PBS (phosphate-buffered saline, pH 7.4). […] The plate was incubated in a CO2 incubator for 0/N incubation for 24 hours. […] Once extracts were added to incubated cells and mixed gently, the plate was given a brief spin and incubated in the CO2 incubator for 72 hours. The plate was removed from the incubator and 10 ul of detection reagent (CellTiterGlo®; Promega Corporation, Wisconsin, USA) added to each well of the 384 well plate. […] The assay described above is a two-dimensional (2D) assay.
# [4] = system: Breast Cancer PDCs, ER/PR− Her2+ (Her2+); experiment: Anti-proliferation assay on breast cancer Her2+ PDCs; format: cell-based, human; details: drug alone @ 10 uM; 10 µM
# Description: as §3
# [5] = system: Prostate cancer (PC-3) cells; experiment: Anti-proliferation assay on prostate cancer cells; format: cell-based; details: Homo sapiens
# Description: (§4) Cells were plated at 1.25 k/well in 384 well plates. […] Anti-proliferative assays were generally performed as discussed in Example I above, in triplicate, with detection reagent CellTiterGlo. Tables 80-82 show data for controls for assays on prostate cancer (PC-3 cells), and that the data passed quality control parameters. Tables 83-85 show data for controls for assays on ovarian cancer (OVCAR-3 cells), and that the data passed quality control parameters.
# [6] = system: Non-small cell lung cancer cells (cell line NCI-H-358); experiment: Anti-proliferation assay on non-small cell lung cancer cells; format: cell-based; details: Homo sapiens, NCI-H358
# Description: as §1, §2
# [7] = system: TN breast cancer PDCs SB 30750; experiment: Anti-proliferation assay on TN breast cancer PDCs SB 30750; format: cell-based; details: Homo sapiens
# Description: In this Example, AyuFlex®, Capros®, and Ayuric® were each applied to different PDCs than previous tests, TN breast cancer PDCs SB 30750, and tested via the anti-proliferation assay described above. […] Incubation times were 72 hours.
# [8] = system: SHP-77 (small cell lung cancer) cells; experiment: Anti-proliferation assay on small cell lung cancer cells; format: cell-based; details: Homo sapiens, SHP77
# Description: SHP-77 (small cell lung cancer) cells were incubated for 72 hours with 100 ug/ml, 30 ug/ml, and 10 ug/ml each of AyuFlex®, Capros® Phyto-BGS®, PrimaVie®, Sensoril®, Ayuric®, and Crominex®, and tested according to the anti-proliferative assay described above. Cells were plated at 1.25 k/well in 384 well plates. Standard of care drug docetaxel was also tested at a 10 uM concentration as a control. Anti-proliferative assays were generally performed as discussed above, in triplicate, with detection reagent CellTiterGlo® as discussed for instance in Example I. Tables 77-79 show data for controls and that the data passed quality control parameters.
# [9] = system: Ovarian cancer (OVCAR-3) cells; experiment: Anti-proliferation assay on ovarian cancer cells; format: cell-based; details: Homo sapiens
# Description: as §4
# [10] = system: Glioma PDCs (Glioblastoma Grade IV); experiment: Anti-proliferation assay (CellTiterGlo, 72 h) on glioma PDCs; format: cell-based, human; details: drug alone @ 10 uM; for inhibition at 10 µM: Homo sapiens
# Description: as §3
# [11] = drug 10 uM, read-out: inhibition of proliferation
# [12] = plate control @ 10 uM, read-out: % Inhibition Average (SD)
# [13] = plate control @ 10 uM, read-out: % Inhibition n1
# [14] = plate control @ 10 uM, read-out: % Inhibition n2
# [15] = plate control @ 10 uM, read-out: % Inhibition n3
# [16] = 10 uM, 72 h, read-out: % Inhibition Average (SD)
# [17] = 10 uM, 72 h, read-out: % Inhibition n1
# [18] = 10 uM, 72 h, read-out: % Inhibition n2
# [19] = 10 uM, 72 h, read-out: % Inhibition n3
# [20] = drug 10 uM, read-out: inhibition
structure (smiles),measurement,setting,value
"COc1cccc2c1C(=O)c1c(O)c3c(c(O)c1C2=O)C[C@@](O)(C(=O)CO)C[C@@H]3O[C@H]1C[C@H](N)[C@H](O)[C@H](C)O1 [Doxorubicin, doxorubicin]",inhibition at 10 µM,[1]; [11],94%
same,inhibition at 10 µM,[1]; [12],94%
same,inhibition at 10 µM,[1]; [13],94%
same,inhibition at 10 µM,[1]; [14],93%
same,inhibition at 10 µM,[1]; [15],94%
same,inhibition at 10 µM,"[2]; Plate 1 quality control, read-out: % Inhibition Average",96%
same,inhibition at 10 µM,"[2]; Plate 1 quality control, read-out: % Inhibition n1",97%
same,inhibition at 10 µM,"[2]; Plate 1 quality control, read-out: % Inhibition n2",96%
same,inhibition at 10 µM,"[2]; Plate 1 quality control, read-out: % Inhibition n3",95%
same,inhibition at 10 µM,"[2]; Plate 2 quality control, read-out: % Inhibition Average",97%
same,inhibition at 10 µM,"[2]; Plate 2 quality control, read-out: % Inhibition n1",98%
same,inhibition at 10 µM,"[2]; Plate 2 quality control, read-out: % Inhibition n2",97%
same,inhibition at 10 µM,"[2]; Plate 2 quality control, read-out: % Inhibition n3",97%
same,inhibition at 10 µM,"[3]; Doxorubicin @ 10 uM, read-out: % Inhibition Avg",2%
same,inhibition at 10 µM,"[3]; Doxorubicin @ 10 uM, read-out: % Inhibition n1",16%
same,inhibition at 10 µM,"[3]; Doxorubicin @ 10 uM, read-out: % Inhibition n2",-9%
same,inhibition at 10 µM,"[3]; Doxorubicin @ 10 uM, read-out: % Inhibition n3",1%
same,inhibition at 10 µM,"[3]; drug alone @ 10 uM, read-out: % Inhibition Avg",55%
same,inhibition at 10 µM,"[3]; drug alone @ 10 uM, read-out: % Inhibition, single replicates",50%
same,"% Inhibition, single replicates","[3]; drug alone @ 10 uM, 10 µM",61%
same,anti-cancer activity (in words),"[3]; extracts 100, 30, 10 ug/ml, doxorubicin 10 uM",relatively low inhibitory activity
same,% Inhibition Avg,[4],60% and 96%
same,"% Inhibition, single replicates",[4],62% and 58% and 95% and 97%
same,inhibition at 10 µM,[5]; [16],70%
same,inhibition at 10 µM,[5]; [17],70%
same,inhibition at 10 µM,[5]; [18],70%
same,inhibition at 10 µM,[5]; [19],71%
same,inhibition at 10 µM,[5]; [20],70%
same,inhibition at 10 µM,[6]; [11],78%
same,inhibition at 10 µM,[6]; [12],78%
same,inhibition at 10 µM,[6]; [13],79%
same,inhibition at 10 µM,[6]; [14],77%
same,inhibition at 10 µM,[6]; [15],77%
same,inhibition at 10 µM,"[7]; 10 uM, 72 h, read-out: % Inhibition Avg",68%
same,inhibition at 10 µM,[7]; [17],78%
same,inhibition at 10 µM,[7]; [18],68%
same,inhibition at 10 µM,[7]; [19],58%
same,inhibition at 10 µM,[7]; read-out: % Inhibition Average (SD),68%
same,inhibition at 10 µM,[7]; read-out: % Inhibition n1,78%
same,inhibition at 10 µM,[7]; read-out: % Inhibition n2,68%
same,inhibition at 10 µM,[7]; read-out: % Inhibition n3,58%
same,inhibition at 10 µM,[8]; [16],93%
same,inhibition at 10 µM,[8]; [17],94%
same,inhibition at 10 µM,[8]; [18],93%
same,inhibition at 10 µM,[8]; [19],93%
same,inhibition at 10 µM,[8]; [20],93%
same,inhibition at 10 µM,[9]; [16],76%
same,inhibition at 10 µM,[9]; [17],74%
same,inhibition at 10 µM,[9]; [18],75%
same,inhibition at 10 µM,[9]; [19],79%
same,inhibition at 10 µM,[9]; [20],76%
same,inhibition at 10 µM,[10]; read-out: % Inhibition Avg,82%
same,inhibition at 10 µM,"[10]; read-out: % Inhibition, single replicates",81%
same,% Inhibition Avg,[10]; 10 µM,97%
same,"% Inhibition, single replicates",[10]; 10 µM,83% and 98% and 97% and 96%
